Several values for one entry are separate records, joined by “and”; a condition that tells them apart may be missing. Identical values can stand only once. Counter-ions that a name gives are not always drawn. Like-named read-outs stand apart in the source and are kept apart here.
What was measured:
purified PARP protein = purified PARP protein (Homo sapiens, UniProt P09874); experiment: PARP enzyme inhibition assay; type: biochemical
[1] = 20 nM purified PARP (5 nM for tight-binding inhibitors), 500 μM NAD+, 25° C., several values in one cell = repeat determinations, read-out: Inhibition Constant Ki

purified PARP protein, sequence (P09874 whole entry): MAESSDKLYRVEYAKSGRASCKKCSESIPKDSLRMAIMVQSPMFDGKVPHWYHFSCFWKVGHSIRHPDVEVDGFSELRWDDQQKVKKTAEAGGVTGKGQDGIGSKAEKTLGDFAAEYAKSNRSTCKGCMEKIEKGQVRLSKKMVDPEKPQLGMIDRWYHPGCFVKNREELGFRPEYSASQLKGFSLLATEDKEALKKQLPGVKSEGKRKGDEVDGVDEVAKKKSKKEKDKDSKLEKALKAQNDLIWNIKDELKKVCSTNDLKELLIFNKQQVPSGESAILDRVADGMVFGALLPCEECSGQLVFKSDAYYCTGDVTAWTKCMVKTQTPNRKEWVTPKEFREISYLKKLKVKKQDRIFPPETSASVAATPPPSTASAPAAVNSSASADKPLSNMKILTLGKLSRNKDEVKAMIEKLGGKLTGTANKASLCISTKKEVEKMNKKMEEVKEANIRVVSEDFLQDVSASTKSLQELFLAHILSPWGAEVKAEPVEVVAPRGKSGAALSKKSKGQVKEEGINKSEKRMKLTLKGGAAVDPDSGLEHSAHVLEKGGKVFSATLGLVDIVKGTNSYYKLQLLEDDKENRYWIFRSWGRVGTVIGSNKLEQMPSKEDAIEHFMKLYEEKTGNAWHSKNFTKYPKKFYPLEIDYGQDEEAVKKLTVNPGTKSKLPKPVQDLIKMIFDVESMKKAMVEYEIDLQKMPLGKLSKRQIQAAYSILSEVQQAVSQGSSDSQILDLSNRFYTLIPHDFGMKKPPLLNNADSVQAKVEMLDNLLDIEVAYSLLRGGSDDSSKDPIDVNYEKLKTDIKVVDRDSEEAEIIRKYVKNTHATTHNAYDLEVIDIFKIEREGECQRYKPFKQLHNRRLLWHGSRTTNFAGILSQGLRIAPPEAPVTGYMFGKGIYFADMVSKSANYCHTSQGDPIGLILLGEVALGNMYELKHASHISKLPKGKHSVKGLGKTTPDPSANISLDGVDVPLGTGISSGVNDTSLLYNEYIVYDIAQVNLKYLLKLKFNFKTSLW

| SMILES | melting point | Ki (purified PARP protein; [1]) | Ki (purified PARP protein; Inhibition Constant Ki (nM)) |
| --- | --- | --- | --- |
| O=C1NCCn2c(-c3ccnc(Cl)c3)nc3cccc1c32 [Example 15, 1-(2-Chloropyridin-4-yl)-8,9-dihydro-7H-2,7,9a-triaza-benzo[cd]azulen-6-one] | 265 °C (dec.) | 12.1 nM | – |
| O=C1NCCn2c(-c3cccc(Oc4cccnc4)c3)nc3cccc1c32 [Example 16, 1-[3-(Pyridin-3-yloxy)-phenyl]-8,9-dihydro-7H-2,7,9a-triaza-benzo[cd]azulen-6-one] | 223 to 225 °C | 7.2 nM | – |
| CC(C)Cc1nc2cccc3c2n1CCNC3=O [Example 23, 1-Isobutyl-8,9-dihydro-7H-2,7,9a-triaza-benzo[cd]azulen-6-one] | 211 to 212 °C | 17.3 nM | – |
| CN1CCn2c(-c3cccc4ccccc34)nc3cccc(c32)C1=O [Example 27, 7-Methyl-1-naphthalen-1-yl-8,9-dihydro-7H-2,7,9a-triaza-benzo[cd]azulen-6-one] | 126 °C (dec.) | – | – |
| O=C1NCCn2c(SCc3ccccc3)nc3cccc1c32 [Example 29, 1-Benzylsulfanyl-8,9-dihydro-7H-2,7,9a-triaza-benzo[cd]azulen-6-one] | 189 to 191 °C | 24 nM | – |
| COC(OC)c1cccc(-c2nc3cccc4c3n2CCNC4=O)c1 [Example 31a, 1-(3-Dimethoxymethyl-phenyl)-8,9-dihydro-7H-2,7,9a-triaza-benzo[cd]azulen-6-one] | 182 to 185 °C | 22 nM | – |
| CNCc1ccc(-c2cc3cccc4c3n2CCNC4=O)cc1 [Example 83, 6-(4-Methylaminomethyl-phenyl)-3,4-dihydro-2H-[1,4]diazepino[6,7,1-hi]indol-1-one] | 178 to 180 °C | – | – |
| O=Cc1ccc(-c2cc3cc(F)cc4c3n2CCNC4=O)cc1 [Example 169, 4-(9-Fluoro-1-oxo-1,2,3,4-tetrahydro-[1,4]diazepino[6,7,1-hi]indol-6-yl)-benzaldehyde] | 212 to 214 °C | – | – |

The remaining lines, values ahead:

| melting point | Ki (purified PARP protein; [1]) | Ki (purified PARP protein; Inhibition Constant Ki (nM)) | SMILES |
| --- | --- | --- | --- |
| 268 to 270 °C | – | – | O=Cc1c(-c2ccc(F)cc2)n2c3c(cccc13)C(=O)NCC2 |
| 272 to 274 °C | – | – | N/N=C(\N)c1c(-c2ccc(F)cc2)n2c3c(cccc13)C(=O)NCC2 (as salt: hydrochloride) [Example 156, 7-Formyl-6-(4-fluorophenyl)-1-oxo-3,4-dihydro-[1,4]diazepino[6,7,1-hi]indole Amidrazone Hydrochloride] |
| 226 °C (dec.) | 10.1 nM | – | O=C1NCCn2c(-c3ccno3)nc3cccc1c32 [Example 13, 1-Isoxazol-5-yl-8,9-dihydro-7H-2,7,9a-triaza-benzo[cd]azulen-6-one] |
| 246 to 248 °C | 13 nM and 14 nM and 15 nM | – | CC(C)(C)c1nc2cccc3c2n1CCNC3=O [Example 22, 1-tert-Butyl-8,9-dihydro-7H-2,7,9a-triaza-benzo[cd]azulen-6-one] |
| 247 °C (dec.) | – | – | O=C1NCCn2c(-c3cccc(C4OCCCO4)c3)nc3cccc1c32 [Example 30, 1-(3-[1,3]-Dioxan-2-yl-phenyl)-8,9-dihydro-7H-2,7,9a-triaza-benzo[cd]azulen-6-one] |
| 275 to 278 °C | 8.8 nM | – | O=C1NCCn2c(-c3cccc(CO)c3)nc3cccc1c32 [Example 32a, 1-(3-Hydroxymethyl-phenyl)-8,9-dihydro-7H-2,7,9a-triaza-benzo[cd]azulen-6-one] |
| 193 to 195 °C | 8.2 nM | – | COc1ccc(-c2cc3cccc4c3n2CCNC4=O)cc1 [Example 35, 6-(4-Methoxyphenyl)-3,4-dihydro-2H-[1,4]diazepino[6,7,1-hi]indol-1-one] |
| 133 to 135 °C | – | 27 nM | O=C1NCCn2c(CCc3ccccc3)cc3cccc1c32 [Example 36, 6-Phenethyl-3,4-dihydro-2H-[-1,4]diazepino[6,7,1-hi]indol-1-one] |
| – | 16 nM | – | O=C1NCCn2c(-c3ccc(/C=C/c4ccccc4)cc3)nc3cccc1c32 [Example 247c, 1-[4-((E)-Styryl)-phenyl]-8,9-dihydro-7H-2,7,9a-triaza-benzo[cd]azulen-6-one] |

— patent US6548494B1, “Tricyclic inhibitors of poly(ADP-ribose) polymerases” (Agouron Pharmaceuticals, Inc., priority 1999, dated 2003)
